Patent US10683307B2, “Compounds for use in antibacterial applications” (GLAXOSMITHKLINE INTELLECTUAL PROPERTY DEVELOPMENT LIMITED, priority 2015, dated 2020)
Counter-ions that a name gives are not always drawn. Like-named read-outs stand apart in the source and are kept apart here.

Tests used:
Format in all cases: cell-based
[1] = test system: Staphylococcus aureus
[2] = test system: Burkholderia cepacia; design: unit not given beside the values; conditions: unit not given
[3] = test system: Streptococcus pyogenes
[4] = test system: Francisella tularensis; test: microbe, parasite or virus in culture
[5] = test system: Yersinia pestis; test: microbe, parasite or virus in culture
[6] = test system: Bacillus anthracis; test: microbe, parasite or virus in culture
[7] = test system: Streptococcus pneumonia; conditions: Streptococcus pneumoniae
[8] = test system: Mycobacterium tuberculosis H37Rv; test: Mycobacterium Tuberculosis H37Rv Inhibition Assay; conditions: H37Rv strain, Middlebrook 7H9+ADC, resazurin fluorescence; for MIC: H37RV
[9] = test system: Providencia rettgeri; conditions: Table 1 column O = Providencia rettgeri; unit inferred
[10] = test system: Bacteroides thetaiotamicron
[11] = test system: Bacteroides caccae
[12] = test system: Burkholderia pseudomallei; conditions: Table 3 column E4 = Burkholderia pseudomallei
[13] = test system: Bacteroides fragilis
[14] = test system: Burkholderia mallei; conditions: Table 3 column D4 = Burkholderia mallei
[15] = test system: citrobacter spp; conditions: Table 1 column L = citrobacter spp; unit inferred
[16] = test system: Bacteroides ovatus
[17] = test system: Serratia marcescens; conditions: Table 1 column N = Serratia marcescens; unit inferred
[18] = test system: Streptococcus agalactiae
[19] = test system: E. faecium; conditions: G1 = E. faecium
[20] = test system: Enterococcus faecalis
[21] = test system: Moraxella catarrhalis; conditions: unit inferred
[22] = test system: Legionella pneumophila; conditions: Table 1 column G = Legionella pneumophila; unit inferred

Work on `COc1cnc2ccc(F)c(CN[C@H]3CC[C@H](NCc4cnc5c(n4)NC(=O)CO5)C[C@H]3O)c2n1.Cl` [Compound W, 6-({[(1S,3R,4S)-4-{[(6-fluoro-3-methoxyquinoxalin-5-yl)methyl]amino}-3-hydroxycyclohexyl]amino}methyl)-2H,3H,4H-pyrazino[2,3-b][1,4]oxazin-3-one] yielded an MIC90 [1] of no more than 0.125 µg/mL, an MIC90 [2] of no more than 16 and an MIC90 [3] of no more than 0.125 µg/mL. The MIC90 ([4]; Francisella tularensis) was no more than 0.125 µg/mL, the MIC90 ([5]; Yersinia pestis) was no more than 0.125 µg/mL and the MIC90 ([6]; Bacillus anthracis) was no more than 0.5 µg/mL. For the same compound, the MIC90 [7] was no more than 0.5 µg/mL.

`COc1cnc2ccc(F)c(CN[C@H]3CC[C@H](NCc4cnc5c(n4)NC(=O)CO5)C[C@H]3O)c2n1.Cl` [Compound W, HCl salt, 6-(((1S,3R,4S)-4-((7-Fluoro-2-methoxyquinoxalin-8-yl)methylamino)-3-hydroxycyclohexylamino)methyl)-2H-pyrazino[2,3-b][1,4]oxazin-3(4H)-one Hydrochloride] was tested, and the MIC [8] was no more than 0.02 µg/mL.

Work on `COc1ccc2ccc(=O)n(CCN3C[C@H](CNCc4cnc5c(n4)NC(=O)CS5)[C@H](O)C3)c2n1` [Compound Y, HCl salt, 1-{2-[(3S,4S)-3-hydroxy-4-{[({3-oxo-2H,3H,4H-pyrazino[2,3-b][1,4]thiazin-6-yl}methyl)amino]methyl}pyrrolidin-1-yl]ethyl}-7-methoxy-1,2-dihydro-1,8-naphthyridin-2-one] yielded an MIC [8] of no more than 0.02 µg/mL.

`Cn1cc(C(=O)O)c(=O)c2c(CC[C@H]3CC[C@H](NCc4cnc5c(n4)NC(=O)CS5)CC3)c(F)cc(F)c21` [Compound Z, TFA salt, 6,8-difluoro-1-methyl-4-oxo-5-(2-((1r,4s)-4-(((3-oxo-3,4-dihydro-2H-pyrazino [2,3-b][1,4]thiazin-6-yl)methyl)amino)cyclohexyl)ethyl)-1,4-dihydroquinoline-3-carboxylic acid] gave an MIC [8] of no more than 0.1 µg/mL.

For `COc1cnc2ccc(F)c(CNC3CCC(NCc4cnc5c(n4)NC(=O)CO5)CC3)c2n1.Cl` [Formula (V) HCl salt, 6-((((1R,4R)-4-(((6-fluoro-3-methoxyquinoxalin-5-yl)methyl)amino)cyclohexyl)amino)methyl)-2H-pyrazino[2,3-b][1,4]oxazin-3(4H)-one, Hydrochloride], the MIC90 [9] was no more than 0.5 µg/mL, the MIC [10] was no more than 1 µg/mL and the “H37Rv MIC” value [8] was no more than 0.3 µg/mL. For the same compound, the MIC [11] was no more than 4 µg/mL, the MIC90 [12] was no more than 4 µg/mL and the MIC [13] was no more than 0.5 µg/mL. It also gave an MIC90 [2] of no more than 8, an MIC90 [14] of no more than 4 µg/mL and an MIC90 [15] of no more than 0.25 µg/mL. The MIC [16] was no more than 2 µg/mL, the MIC90 ([4]; Table 3 column C4 = Francisella tularensis) was no more than 0.5 µg/mL and the MIC90 ([5]; Table 3 column A4 = Yersinia pestis) was no more than 0.12 µg/mL. The MIC90 [17] was no more than 4 µg/mL, the MIC90 [18] was no more than 2 µg/mL and the MIC90 ([6]; Table 3 column B4 = Bacillus anthracis) was no more than 0.25 µg/mL.

`COc1cnc2ccc(F)c(CN[C@H]3CC[C@H](NCc4cnc5c(n4)NC(=O)CO5)CC3)c2n1` [Formula (V) free base, 6-((((1R,4R)-4-(((6-fluoro-3-methoxyquinoxalin-5-yl)methyl)amino)cyclohexyl)amino)methyl)-2H-pyrazino[2,3-b][1,4]oxazin-3(4H)-one] showed an MIC90 ([19]; Enterococcus faecium, read-out: MIC90) of no more than 0.5 µg/mL, an MIC [8] of no more than 0.02 µg/mL and an MIC90 ([20]; read-out: MIC90) of no more than 0.5 µg/mL. The MIC90 [21] was less than 0.016 µg/mL.

`COc1cnc2ccc(F)c(CN[C@@H]3CC[C@@H](NCc4cnc5c(n4)NC(=O)CO5)C[C@@H]3O)c2n1.Cl` [Formula (VI) HCl salt, 6-((((1R,3S,4R)-4-(((6-fluoro-3-methoxyquinoxalin-5-yl)methyl)amino)-3-hydroxycyclohexyl)amino)methyl)-2H-pyrazino[2,3-b][1,4]oxazin-3(4H)-one Hydrochloride] showed an MIC [8] of no more than 0.02 µg/mL, an MIC90 [1] of no more than 0.125 µg/mL and an MIC90 [2] of no more than 8. The MIC90 [3] was no more than 0.063 µg/mL, the MIC90 ([4]; Francisella tularensis) was no more than 0.063 µg/mL and the MIC90 ([5]; Yersinia pestis) was no more than 0.125 µg/mL. It also gave an MIC90 ([6]; Bacillus anthracis) of no more than 0.25 µg/mL and an MIC90 [7] of no more than 0.25 µg/mL.

`COc1ccc2ncc(=O)n(CCN3CC[C@@H](CNCc4ncc5c(n4)NC(=O)CO5)C3)c2n1` [Formula (VII) HCl salt, 2-({[((3S)-1-{2-[6-(methyloxy)-3-oxopyrido[2,3-b]pyrazin-4(3H)-yl]ethyl}-3-pyrrolidinyl)methyl]amino}methyl)-1H-pyrimido[5,4-b][1,4]oxazin-7(6H)-one] gave an MIC90 [9] of no more than 1 µg/mL, an MIC90 [19] of no more than 0.5 µg/mL and an MIC [8] of no more than 0.3 µg/mL. It also gave an MIC90 [22] of no more than 0.06 µg/mL, an MIC90 [2] of no more than 16 and an MIC90 ([20]; read-out: MIC90) of no more than 0.5 µg/mL. It also gave an MIC90 [21] of less than 0.016 µg/mL, an MIC90 [15] of no more than 0.5 µg/mL and an MIC90 ([4]; Francisella tularensis) of no more than 0.03 µg/mL. The MIC90 ([5]; Yersinia pestis) was no more than 0.12 µg/mL, the MIC90 [17] was no more than 2 µg/mL and the MIC90 ([6]; Bacillus anthracis) was no more than 0.12 µg/mL.

`COc1ccc2ncc(=O)n(CCN3CC[C@@H](CNCc4ncc5c(n4)NC(=O)CO5)C3)c2n1` [Formula (VII) free base, 2-({[((3S)-1-{2-[6-(methyloxy)-3-oxopyrido[2,3-b]pyrazin-4(3H)-yl]ethyl}-3-pyrrolidinyl)methyl]amino}methyl)-1H-pyrimido[5,4-b][1,4]oxazin-7(6H)-one] was tested, and the MIC90 [19] was no more than 0.125 µg/mL, the “H37Rv MIC” value [8] was no more than 0.16 µg/mL and the MIC90 [2] was no more than 8. The MIC90 [20] was no more than 0.25 µg/mL and the MIC90 [21] was less than 0.016 µg/mL.
